Reference: patent US8367361B2, “Methods using O6-alkylguanine-DNA alkytransferase” (Ecole Polytechnique Federale de Lausanne, priority 2001, dated 2013)

Columns and labels:
[1] = molecular target: T1, endogenous hAGT in human cells (HEK 293) (Homo sapiens, UniProt P16455); assay: Fluorescence labelling of endogenous hAGT in HEK 293 cells, confocal microscopy; assay type: cell-based; conditions: HEK 293 cells preincubated overnight with 1 μM O6-benzylguanine before BG-AcFc
T1 construct: endogenous hAGT in human cells (HEK 293); endogenous in cells; host or cells: HEK 293
T1 sequence (P16455 1-207): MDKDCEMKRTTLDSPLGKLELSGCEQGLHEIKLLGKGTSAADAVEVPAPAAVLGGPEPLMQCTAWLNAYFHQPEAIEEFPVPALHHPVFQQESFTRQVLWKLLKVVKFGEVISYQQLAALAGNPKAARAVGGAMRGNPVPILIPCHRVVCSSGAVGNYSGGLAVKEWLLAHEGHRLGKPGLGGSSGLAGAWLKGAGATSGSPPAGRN
Excerpt: (C) is an overlay of the images obtained from fluorescence and light microscopy.
Images were then taken with a confocal fluorescence microscope (Ext. 492 nm; Em. 510 nm). […] This should inactivate the endogenous hAGT and therefore prevent the accumulation of the fluorescence in the nucleus. […] The substrate's emission wavelength is 519 nm (excitation at 237, 323 and 490 nm respectively).

[2] = molecular target: T2, hAGT (Homo sapiens, UniProt P16455); conditions: cited from earlier work
T2 sequence (P16455 1-207): T1 sequence (P16455 1-207)

Nc1nc(OCc2ccccc2)c2nc[nH]c2n1 [O^6-benzylguanine]
accumulation of BG-AcFc fluorescence in the nucleus after preincubation [1]: no accumulation of fluorescence in the nucleus was observed
second order rate constant of reaction with hAGT [2]: approximately 10^3 sec^−1 M^−1
